# Test results taken from patent US11718612B2, “Inhibitors of receptor interacting protein kinase I for the treatment of disease” (Board of Regents, The University of Texas System, priority 2019, dated 2023).
# Tested on: U937 cells
# Test: Human U937 cellular necroptosis assay
# Format: cell-based
# Conditions: U-937; U937 cells stimulated with 25 ng/mL human TNFalpha and 25 μM z-VAD-FMK; 22 hr; Cell Titer-Glo viability
# Experimental: Human U937 Cellular Necroptosis Assay
# The human monocytic cell line U937 (CRL-1593.2) may be purchased from ATCC. The cells are routinely maintained in RPMI-1640 Medium (Gibco, Catalog #11875-093) supplemented with 10% heat inactivated fetal bovine serum (Gibco, Catalog #16140-071), 100 units/mL penicillin and 100 μg/mL streptomycin (Gibco, Catalog #15140-122), in a humidified incubator (37° C., 5% CO2). For the assay, cells are resuspended in RPMI-1640 phenol red free Media (Gibco, Catalog #11835-030) supplemented with 10% fetal bovine serum (Sigma, Catalog #F2442), 100 units/mL penicillin and 100 ug/mL streptomycin. […] Stock solutions of the test compounds are prepared in 100% DMSO (Sigma, Catalog #D2650) and serially diluted 1:3 using 100% DMSO. Compounds are additionally diluted 1:40 in assay medium, and 10 μL/well was transferred to the plate. Following the compound addition, the plate is incubated at 37° C. and 5% CO2 for 22 hr. After 22 hr, viability is assessed with the addition of 20 μL of Cell Titer-Glo 2.0 (Promega, Catalog #G9243). The tissue culture plate is shaken on an orbital shaker at 300 RPM for 15 minutes at room temperature in the dark. Luminescence is measured using a PerkinElmer Envision™ plate reader. IC50 values are calculated using a four-parameter logistic curve fit using Genedata Screener software.
row,SMILES,IC50
1,"C[C@H](c1cccc(F)c1F)n1nc2c(c1Cl)CCN(c1cccc(Cl)c1F)C2=O (single isomer, unassigned) [Example 55a]",> 10000 nM
2,"C[C@@H](c1cccc(F)c1F)n1nc2c(c1Cl)CCN(c1cccc(Cl)c1F)C2=O (single isomer, unassigned) [Example 55b]",6390 nM
3,"C[C@@H](c1cccc(C#N)c1)n1cnc(C(=O)Nc2cccc(Cl)c2F)n1 (single isomer, unassigned) [Example 56b]",> 10000 nM
4,"O=C1c2nn(Cc3cccc(F)c3F)c(Cl)c2CCN1c1cccc(Cl)c1F [Example 1, 3-chloro-6-(3-chloro-2-fluoro-phenyl)-2-[(2,3-difluorophenyl)methyl]-4,5-dihydropyrazolo[3,4-c]pyridin-7-one]",34.2 nM
5,"CC(c1cccc(F)c1F)n1nc2c(c1Cl)CCN(c1cccc(Cl)c1F)C2=O (stereo not shown) [Example 55, 3-chloro-6-(3-chloro-2-fluorophenyl)-2-(1-(2,3-difluorophenyl)ethyl)-2,4,5,6-tetrahydro-7H-pyrazolo[3,4-c]pyridin-7-one]",> 10000 nM
6,"CC(c1cccc(C#N)c1)n1cnc(C(=O)Nc2cccc(Cl)c2F)n1 (stereo not shown) [Example 56, N-(3-chloro-2-fluorophenyl)-1-(1-(3-cyanophenyl)ethyl)-1H-1,2,4-triazole-3-carboxamide]",1510 nM
7,"N#Cc1cccc(Cn2nc3c(c2Cl)CCN(c2cccc(Cl)c2F)C3=O)c1 [Example 58, 3-((3-Chloro-6-(3-chloro-2-fluorophenyl)-7-oxo-4,5,6,7-tetrahydro-2H-pyrazolo[3,4-c]pyridin-2-yl)methyl)benzonitrile]",95.9 nM
8,"N#Cc1cccc(Cn2cc3c(n2)C(=O)N(c2cccc(Cl)c2F)CC3)c1 [Example 59, 3-((6-(3-chloro-2-fluorophenyl)-7-oxo-4,5,6,7-tetrahydro-2H-pyrazolo[3,4-c]pyridin-2-yl)methyl)benzonitrile]",811 nM
9,"Nc1c2c(nn1Cc1ccccc1)C(=O)N(c1cccc(Cl)c1F)CC2 [Example 60, 3-amino-2-benzyl-6-(3-chloro-2-fluorophenyl)-2,4,5,6-tetrahydro-7H-pyrazolo[3,4-c]pyridin-7-one]",1260 nM
10,"O=C1c2nn(Cc3ccccc3)c(Br)c2CCN1c1cccc(Cl)c1F [Example 61, 2-benzyl-3-bromo-6-(3-chloro-2-fluorophenyl)-2,4,5,6-tetrahydro-7H-pyrazolo[3,4-c]pyridin-7-one]",44.6 nM
11,"O=C1c2nn(Cc3cnccn3)c(Cl)c2CCN1c1cccc(Cl)c1F [Example 62, 3-chloro-6-(3-chloro-2-fluorophenyl)-2-(pyrazin-2-yl-methyl)-2,4,5,6-tetrahydro-7H-pyrazolo[3,4-c]pyridin-7-one]",53.7 nM
12,"O=C1c2nn(Cc3ncccc3F)c(Cl)c2CCN1c1cccc(Cl)c1F [Example 63, 3-chloro-6-(3-chloro-2-fluorophenyl)-2-((3-fluoropyridin-2-yl)methyl)-2,4,5,6-tetrahydro-7H-pyrazolo[3,4-c]pyridin-7-one]",64.1 nM
13,"O=C1c2nn(Cc3ncccc3Cl)c(Cl)c2CCN1c1cccc(Cl)c1F [Example 64, 3-chloro-6-(3-chloro-2-fluorophenyl)-2-((3-chloropyridin-2-yl)methyl)-2,4,5,6-tetrahydro-7H-pyrazolo[3,4-c]pyridin-7-one]",130 nM
14,"Cc1ccc(Cn2nc3c(c2Cl)CCN(c2cccc(Cl)c2F)C3=O)cc1 [Example 65, 3-chloro-6-(3-chloro-2-fluorophenyl)-2-(4-methylbenzyl)-2,4,5,6-tetrahydro-7H-pyrazolo[3,4-c]pyridin-7-one]",207 nM
15,"O=C1c2nn(Cc3ccc(F)cc3)c(Cl)c2CCN1c1cccc(Cl)c1F [Example 66, 3-chloro-6-(3-chloro-2-fluorophenyl)-2-(4-fluorobenzyl)-2,4,5,6-tetrahydro-7H-pyrazolo[3,4-c]pyridin-7-one]",291 nM
16,"Cc1cccc(Cn2nc3c(c2Cl)CCN(c2cccc(Cl)c2F)C3=O)c1 [Example 67, 3-chloro-6-(3-chloro-2-fluorophenyl)-2-(3-methylbenzyl)-2,4,5,6-tetrahydro-7H-pyrazolo[3,4-c]pyridin-7-one]",444 nM
